Measurements reported in the supplement of paper PMC10307832.

Tests used:
Assay in all cases: relative viability (nuclei count vs DMSO), 5 days (fraction); higher = more cells survive
201T = tested on: 201T
Method in brief: (§1)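 Relative viability was taken as the ratio of nuclei in treated wells to nuclei in vehicle wells. Lung cancer cell lines in 1536-well plates received compounds by pin tool one day after seeding, either one drug alone or a fixed anchor-drug dose plus five library-drug doses (not always all listed) in √10 steps. Nuclei were counted on 4× images after 5 days of treatment, and values are medians of duplicate plates.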

COR-L23 = tested on: COR-L23
Method in brief: as §1

H3255 = tested on: H3255
Method in brief: as §1

HARA = tested on: HARA
Method in brief: as §1

HCC-366 = tested on: HCC-366
Method in brief: as §1

HCC-78 = tested on: HCC-78
Method in brief: as §1

LU99A = tested on: LU99A
Method in brief: as §1

NCI-H1650 = tested on: NCI-H1650
Method in brief: as §1

NCI-H1651 = tested on: NCI-H1651
Method in brief: as §1

NCI-H1755 = tested on: NCI-H1755
Method in brief: as §1

NCI-H1793 = tested on: NCI-H1793
Method in brief: as §1

NCI-H2085 = tested on: NCI-H2085
Method in brief: as §1

NCI-H2087 = tested on: NCI-H2087
Method in brief: as §1

NCI-H23 = tested on: NCI-H23
Method in brief: as §1

NCI-H3122 = tested on: NCI-H3122
Method in brief: as §1

NCI-H322M = tested on: NCI-H322M
Method in brief: as §1

NCI-H358 = tested on: NCI-H358
Method in brief: as §1

NCI-H460 = tested on: NCI-H460
Method in brief: as §1

NCI-H522 = tested on: NCI-H522
Method in brief: as §1

NCI-H596 = tested on: NCI-H596
Method in brief: as §1

NCI-H650 = tested on: NCI-H650
Method in brief: as §1

PC-3 [JPC-3] = tested on: PC-3 [JPC-3]
Method in brief: as §1

SK-LU-1 = tested on: SK-LU-1
Method in brief: as §1

For `Cc1cn(-c2cc(NC(=O)c3ccc(C)c(Nc4nccc(-c5cccnc5)n4)c3)cc(C(F)(F)F)c2)cn1` [Nilotinib] + O=C(c1cc(Cc2n[nH]c(=O)c3ccccc23)ccc1F)N1CCN(C(=O)C2CC2)CC1 [Olaparib] (partner 8 µM), the relative viability (201T; first compound 0.001 µM) was 0.843, the relative viability (201T; first compound 0.003162 µM) was 0.876 and the relative viability (201T; first compound 0.01 µM) was 0.959. For the same compound, the relative viability (201T; first compound 0.03162 µM) was 0.935, the relative viability (201T; first compound 0.1 µM) was 0.869 and the relative viability (COR-L23; first compound 0.001 µM) was 0.356. The relative viability (COR-L23; first compound 0.003162 µM) was 0.319, the relative viability (COR-L23; first compound 0.01 µM) was 0.396 and the relative viability (COR-L23; first compound 0.03162 µM) was 0.306. The relative viability (COR-L23; first compound 0.1 µM) was 0.288, the relative viability (H3255; first compound 0.001 µM) was 0.533 and the relative viability (H3255; first compound 0.003162 µM) was 0.561. The relative viability (H3255; first compound 0.01 µM) was 0.572, the relative viability (H3255; first compound 0.03162 µM) was 0.474 and the relative viability (H3255; first compound 0.1 µM) was 0.501. The relative viability (HARA; first compound 0.001 µM) was 0.639, the relative viability (HARA; first compound 0.003162 µM) was 0.867 and the relative viability (HARA; first compound 0.01 µM) was 0.676. The relative viability (HARA; first compound 0.03162 µM) was 0.535, the relative viability (HARA; first compound 0.1 µM) was 0.747 and the relative viability (HCC-366; first compound 0.001 µM) was 0.272. For the same compound, the relative viability (HCC-366; first compound 0.003162 µM) was 0.327, the relative viability (HCC-366; first compound 0.01 µM) was 0.339 and the relative viability (HCC-366; first compound 0.03162 µM) was 0.281. It also gave a relative viability (HCC-366; first compound 0.1 µM) of 0.281, a relative viability (HCC-78; first compound 0.001 µM) of 0.748 and a relative viability (HCC-78; first compound 0.003162 µM) of 0.602. The relative viability (HCC-78; first compound 0.01 µM) was 0.877, the relative viability (HCC-78; first compound 0.03162 µM) was 0.768 and the relative viability (HCC-78; first compound 0.1 µM) was 0.752. For the same compound, the relative viability (LU99A; first compound 0.001 µM) was 0.2, the relative viability (LU99A; first compound 0.003162 µM) was 0.201 and the relative viability (LU99A; first compound 0.03162 µM) was 0.221. The relative viability (LU99A; first compound 0.1 µM) was 0.164, the relative viability (NCI-H1650; first compound 0.001 µM) was 0.776 and the relative viability (NCI-H1650; first compound 0.003162 µM) was 0.948. For the same compound, the relative viability (NCI-H1650; first compound 0.01 µM) was 0.777, the relative viability (NCI-H1650; first compound 0.03162 µM) was 0.756 and the relative viability (NCI-H1650; first compound 0.1 µM) was 1.08. It also gave a relative viability (NCI-H1651; first compound 0.001 µM) of 0.173, a relative viability (NCI-H1651; first compound 0.003162 µM) of 0.187 and a relative viability (NCI-H1651; first compound 0.01 µM) of 0.168. The relative viability (NCI-H1651; first compound 0.03162 µM) was 0.156, the relative viability (NCI-H1651; first compound 0.1 µM) was 0.181 and the relative viability (NCI-H1755; first compound 0.001 µM) was 0.839. It also gave a relative viability (NCI-H1755; first compound 0.003162 µM) of 1.02, a relative viability (NCI-H1755; first compound 0.01 µM) of 0.953 and a relative viability (NCI-H1755; first compound 0.03162 µM) of 0.901. It also gave a relative viability (NCI-H1755; first compound 0.1 µM) of 0.784, a relative viability (NCI-H1793; first compound 0.001 µM) of 0.863 and a relative viability (NCI-H1793; first compound 0.003162 µM) of 0.822. For the same compound, the relative viability (NCI-H1793; first compound 0.01 µM) was 1.13, the relative viability (NCI-H1793; first compound 0.03162 µM) was 0.706 and the relative viability (NCI-H1793; first compound 0.1 µM) was 0.677. The relative viability (NCI-H2085; first compound 0.001 µM) was 0.747, the relative viability (NCI-H2085; first compound 0.003162 µM) was 0.834 and the relative viability (NCI-H2085; first compound 0.01 µM) was 0.797. For the same compound, the relative viability (NCI-H2085; first compound 0.03162 µM) was 0.889, the relative viability (NCI-H2085; first compound 0.1 µM) was 0.684 and the relative viability (NCI-H2087; first compound 0.001 µM) was 0.529. For the same compound, the relative viability (NCI-H2087; first compound 0.003162 µM) was 0.672, the relative viability (NCI-H2087; first compound 0.01 µM) was 0.592 and the relative viability (NCI-H2087; first compound 0.03162 µM) was 0.552. It also gave a relative viability (NCI-H2087; first compound 0.1 µM) of 0.514, a relative viability (NCI-H23; first compound 0.001 µM) of 0.353 and a relative viability (NCI-H23; first compound 0.003162 µM) of 0.302. For the same compound, the relative viability (NCI-H23; first compound 0.01 µM) was 0.321, the relative viability (NCI-H23; first compound 0.03162 µM) was 0.295 and the relative viability (NCI-H23; first compound 0.1 µM) was 0.331. It also gave a relative viability (NCI-H3122; first compound 0.001 µM) of 0.591, a relative viability (NCI-H3122; first compound 0.003162 µM) of 0.688 and a relative viability (NCI-H3122; first compound 0.01 µM) of 0.848. The relative viability (NCI-H3122; first compound 0.03162 µM) was 0.515, the relative viability (NCI-H3122; first compound 0.1 µM) was 0.721 and the relative viability (NCI-H322M; first compound 0.001 µM) was 0.737. The relative viability (NCI-H322M; first compound 0.003162 µM) was 0.712, the relative viability (NCI-H322M; first compound 0.01 µM) was 0.678 and the relative viability (NCI-H322M; first compound 0.03162 µM) was 0.556. It also gave a relative viability (NCI-H322M; first compound 0.1 µM) of 0.818, a relative viability (NCI-H358; first compound 0.001 µM) of 0.546 and a relative viability (NCI-H358; first compound 0.003162 µM) of 0.721. It also gave a relative viability (NCI-H358; first compound 0.01 µM) of 0.813, a relative viability (NCI-H358; first compound 0.03162 µM) of 0.52 and a relative viability (NCI-H358; first compound 0.1 µM) of 0.539. For the same compound, the relative viability (NCI-H460; first compound 0.001 µM) was 0.318, the relative viability (NCI-H460; first compound 0.003162 µM) was 0.295 and the relative viability (NCI-H460; first compound 0.01 µM) was 0.496. It also gave a relative viability (NCI-H460; first compound 0.03162 µM) of 0.27, a relative viability (NCI-H460; first compound 0.1 µM) of 0.34 and a relative viability (NCI-H522; first compound 0.01 µM) of 0.66. It also gave a relative viability (NCI-H522; first compound 0.03162 µM) of 0.625, a relative viability (NCI-H522; first compound 0.1 µM) of 0.565 and a relative viability (NCI-H596; first compound 0.001 µM) of 0.651. It also gave a relative viability (NCI-H596; first compound 0.003162 µM) of 0.702, a relative viability (NCI-H596; first compound 0.01 µM) of 0.711 and a relative viability (NCI-H596; first compound 0.03162 µM) of 0.646. For the same compound, the relative viability (NCI-H596; first compound 0.1 µM) was 0.671, the relative viability (NCI-H650; first compound 0.001 µM) was 0.357 and the relative viability (NCI-H650; first compound 0.003162 µM) was 0.432. It also gave a relative viability (NCI-H650; first compound 0.01 µM) of 0.454, a relative viability (NCI-H650; first compound 0.03162 µM) of 0.36 and a relative viability (NCI-H650; first compound 0.1 µM) of 0.344. It also gave a relative viability (PC-3 [JPC-3]; first compound 0.001 µM) of 1.05, a relative viability (PC-3 [JPC-3]; first compound 0.01 µM) of 1.35 and a relative viability (PC-3 [JPC-3]; first compound 0.03162 µM) of 1.16. It also gave a relative viability (PC-3 [JPC-3]; first compound 0.1 µM) of 0.829, a relative viability (SK-LU-1; first compound 0.001 µM) of 0.408 and a relative viability (SK-LU-1; first compound 0.003162 µM) of 0.469. For the same compound, the relative viability (SK-LU-1; first compound 0.01 µM) was 0.541, the relative viability (SK-LU-1; first compound 0.03162 µM) was 0.354 and the relative viability (SK-LU-1; first compound 0.1 µM) was 0.444.
